Tested on: NL4-3 strain of HIV-1
Assay: Inhibition of HIV replication: cyto-protection in Cell-Titer-Glo viability assay, MT4 cells infected with NL4-3 virus
Type: cell-based
Conditions: Human immunodeficiency virus 1, NL43, 120 h, concentration leading to 50% of cyto-protection, 5 days incubation, CellTiter-Glo luminescence
Method: The antiviral activity, particularly against HIV, of compounds according to the invention is evaluated by the protocol described below.
Preparation of Virus Stock of the NL4-3 Strain of HIV-1 (Adachi et al, J Virol, 1986, 59(2):284-91).
The virus was prepared as described in Lopez et al (Lopez et al, Proc Natl Acad Sci USA., 2006, 103(40):14947-52, by transfecting 2×10^6 293 T cells (CRL-1573, ATCC) with following modifications: 6 μg of NL4-3 proviral DNA molecular clone were mixed with Fugene 6 transfection reagent from Roche, and used according to manufacturer's instructions. Forty eight hours later, transfected cell supernatants were harvested, filtered through 0.45-μm-pore-size filters, quantified for HIV-1 p24 antigen by using a Innotest HIV antigen mAb assay (Ingen) according to manufacturer's instructions, and used in infection experiments.
Serial dilutions of compounds to be tested were prepared in complete RPMI medium from 10 mM DMSO stock solutions, and distributed in a volume of 20 μL in 96 well Falcon 353072 Microtest™ tissue culture plate, in order to get 0.5% DMSO final concentration in each well, after the addition of infected cells. Control wells contained also 0.5% DMSO final concentration but no compound.
MT^4 cells (from the NIH AIDS Research and Reference Reagent Program) in RPMI complete medium were counted (10×10^6 cells per well in Falcon 353047 Multiwell™ 24 well) and infected for 2 hours at 37°, at a multiplicity of infection (moi) of 0.0001-0.00001. Cells were then centrifuged 3 min at 3000 rpm, and washed two times in 1 ml PBS to remove viruses that have not entered in cells. Infected cells were resuspended in complete RPMI at 1.25×10^6 cells/ml, and 80 μl of infected cells were distributed in each well containing compounds to be tested or control wells. The plates were then incubated at 37° for 5 days.
Assay Used to Measure the Inhibition of HIV Replication by the Compounds (According to (According to Gregg S. Jones et al., Antimicrobial Agents and Chemotherapy, 2009, 53 (3): 1194-1203).
After 5 days of incubation, 50 μl of CellTiter-Glo reagent (Promega Biosciences, Inc., Madison Wis., USA) were added to each well. Cell lysis was carried out at room temperature during 10 min, 150 μl of lysates were transferred in Packard Optiplate 96 well, and luminescence was read on a Fluoroskan (Thermo Scientific).
The EC50, or effective concentration 50, is the concentration of compound leading to 50% of cyto-protection in a Cell-Titer-Glo® viability assay based on MT^4 cells infected with NL4-3 virus (table 1).

Row | Compound | EC50 [nM]
1 | CC(C)(C)OC(C(=O)O)c1c(C(F)(F)F)ccc(-c2cccc(C(N)=O)c2)c1-c1ccc2c(c1)CCCO2 (stereo not shown) [Example 14, 2-(tert-butoxy)-2-[3-(3-carbamoylphenyl)-2-(3,4-dihydro-2H-1-benzopyran-6-yl)-6-(trifluoromethyl)phenyl]acetic acid] | 780
2 | CCCc1cc(-c2ccc(C(F)(F)F)c(C(OC(C)(C)C)C(=O)O)c2-c2ccc3c(c2)CCCO3)ccn1 (stereo not shown) [Example 28, 2-(tert-butoxy)-2-[2-(3,4-dihydro-2H-1-benzopyran-6-yl)-3-(2-propylpyridin-4-yl)-6-(trifluoromethyl)phenyl]acetic acid] | 78
3 | CC(C)(C)OC(C(=O)O)c1c(C(F)(F)F)ccc(-c2ccncn2)c1-c1ccc2c(c1)CCCO2 (stereo not shown) [Example 16, 2-(tert-butoxy)-2-[2-(3,4-dihydro-2H-1-benzopyran-6-yl)-3-(pyrimidin-4-yl)-6-(trifluoromethyl)phenyl]acetic acid] | 940
4 | CC(C)(C)OC(C(=O)O)c1c(C(F)(F)F)ccc(-c2ccc(=O)n(CC3CC3)c2)c1-c1ccc2c(c1)CCCO2 (stereo not shown) [Example 27, 2-(tert-butoxy)-2-{3-[1-(cyclopropylmethyl)-6-oxo-1,6-dihydropyridin-3-yl]-2-(3,4-dihydro-2H-1-benzopyran-6-yl)-6-(trifluoromethyl)phenyl}acetic acid] | 79
5 | COc1ccc(-c2ccc(C(F)(F)F)c(C(OC(C)(C)C)C(=O)O)c2-c2ccc3c(c2)CCCO3)cc1 (stereo not shown) [Example 8, 2-(tert-butoxy)-2-[2-(3,4-dihydro-2H-1-benzopyran-6-yl)-3-(4-methoxyphenyl)-6-(trifluoromethyl)phenyl]acetic acid] | 240
6 | CC(C)(C)OC(C(=O)O)c1c(C(F)(F)F)ccc(-c2ccc(=O)n(CC3CCC3)c2)c1-c1ccc2c(c1)CCCO2 (stereo not shown) [Example 30, 2-(tert-butoxy)-2-{3-[1-(cyclobutylmethyl)-6-oxo-1,6-dihydropyridin-3-yl]-2-(3,4-dihydro-2H-1-benzopyran-6-yl)-6-(trifluoromethyl)phenyl}acetic acid] | 67
7 | CC(C)(C)OC(C(=O)O)c1c(C(F)(F)F)ccc(-c2cccs2)c1-c1ccc2c(c1)CCCO2 (stereo not shown) [Example 7, 2-(tert-butoxy)-2-[2-(3,4-dihydro-2H-1-benzopyran-6-yl)-3-(thiophen-2-yl)-6-(trifluoromethyl)phenyl]acetic acid] | 300
8 | CC(C)(C)OC(C(=O)O)c1c(C(F)(F)F)ccc(-c2cnn3ccccc23)c1-c1ccc2c(c1)CCCO2 (stereo not shown) [Example 12, 2-(tert-butoxy)-2-[2-(3,4-dihydro-2H-1-benzopyran-6-yl)-3-{pyrazolo[1,5-a]pyridin-3-yl}-6-(trifluoromethyl)phenyl]acetic acid] | 420
9 | CC(C)(C)OC(C(=O)O)c1c(C(F)(F)F)ccc(-c2cnn(CC(F)(F)F)c2)c1-c1ccc2c(c1)CCCO2 (stereo not shown) [Example 22, 2-(tert-butoxy)-2-{2-(3,4-dihydro-2H-1-benzopyran-6-yl)-3-[1-(2,2,2-trifluoroethyl)-1H-pyrazol-4-yl]-6-(trifluoromethyl)phenyl}acetic acid] | 320
10 | Cn1cc(-c2ccc(C(F)(F)F)c(C(OC(C)(C)C)C(=O)O)c2-c2ccc3c(c2)CCCO3)cn1 (stereo not shown) [Example 4, 2-(tert-butoxy)-2-[2-(3,4-dihydro-2H-1-benzopyran-6-yl)-3-(1-methyl-1H-pyrazol-4-yl)-6-(trifluoromethyl)phenyl]acetic acid] | 120
11 | CC(C)(C)OC(C(=O)O)c1c(C(F)(F)F)ccc(-c2cccc(N)c2)c1-c1ccc2c(c1)CCCO2 (stereo not shown) [Example 23, 2-[3-(3-aminophenyl)-2-(3,4-dihydro-2H-1-benzopyran-6-yl)-6-(trifluoromethyl)phenyl]-2-(tert-butoxy)acetic acid] | 190
12 | CC(C)(C)OC(C(=O)O)c1c(C(F)(F)F)ccc(-n2cc(Br)cn2)c1-c1ccc2c(c1)CCCO2 (stereo not shown) [Example 9, 2-[3-(4-bromo-1H-pyrazol-1-yl)-2-(3,4-dihydro-2H-1-benzopyran-6-yl)-6-(trifluoromethyl)phenyl]-2-(tert-butoxy)acetic acid] | 360
13 | CC(=O)Nc1cccc(-c2ccc(C(F)(F)F)c(C(OC(C)(C)C)C(=O)O)c2-c2ccc3c(c2)CCCO3)c1 (stereo not shown) [Example 24, 2-(tert-butoxy)-2-[3-(3-acetamidophenyl)-2-(3,4-dihydro-2H-1-benzopyran-6-yl)-6-(trifluoromethyl)phenyl]acetic acid] | 290

Source: patent US9475802B2, “Inhibitors of viral replication, their process of preparation and their therapeutical uses” (LABORATOIRE BIODIM, priority 2012, dated 2016)
